Experiment [1] is described as follows: DRUGMATRIX: Glutamate, NMDA, Agonism radioligand binding (ligand: [3H] CGP-39653). Type of experiment: cell membranes, Rattus norvegicus, Wistar, Cerebral cortex, Membrane. To be noted: Not Active = under 50% inhibition at 10 µM.
Experiment [2] addresses T1, Substance-K receptor (Homo sapiens, UniProt P21452).
T1 sequence (P21452 whole entry): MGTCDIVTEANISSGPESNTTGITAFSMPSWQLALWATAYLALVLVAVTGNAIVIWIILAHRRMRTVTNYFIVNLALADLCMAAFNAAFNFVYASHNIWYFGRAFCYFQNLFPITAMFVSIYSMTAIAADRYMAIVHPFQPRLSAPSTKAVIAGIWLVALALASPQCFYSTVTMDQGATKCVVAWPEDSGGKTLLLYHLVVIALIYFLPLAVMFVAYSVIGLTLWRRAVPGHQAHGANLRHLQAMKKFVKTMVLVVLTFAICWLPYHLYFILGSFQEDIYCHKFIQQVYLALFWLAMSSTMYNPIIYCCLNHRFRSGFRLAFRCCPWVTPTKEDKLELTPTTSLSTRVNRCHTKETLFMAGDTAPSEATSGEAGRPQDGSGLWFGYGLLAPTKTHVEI
Type of experiment: cell membranes, CHO, Membrane. The following applies: for Ki: read-out: Ki.

Experiment [3] deals with 5-hydroxytryptamine receptor 2B (Homo sapiens, UniProt P41595). The class given is cell membranes, CHO-K1, Membrane. To be noted: for Ki: read-out: Ki.
5-hydroxytryptamine receptor 2B, sequence (P41595 whole entry): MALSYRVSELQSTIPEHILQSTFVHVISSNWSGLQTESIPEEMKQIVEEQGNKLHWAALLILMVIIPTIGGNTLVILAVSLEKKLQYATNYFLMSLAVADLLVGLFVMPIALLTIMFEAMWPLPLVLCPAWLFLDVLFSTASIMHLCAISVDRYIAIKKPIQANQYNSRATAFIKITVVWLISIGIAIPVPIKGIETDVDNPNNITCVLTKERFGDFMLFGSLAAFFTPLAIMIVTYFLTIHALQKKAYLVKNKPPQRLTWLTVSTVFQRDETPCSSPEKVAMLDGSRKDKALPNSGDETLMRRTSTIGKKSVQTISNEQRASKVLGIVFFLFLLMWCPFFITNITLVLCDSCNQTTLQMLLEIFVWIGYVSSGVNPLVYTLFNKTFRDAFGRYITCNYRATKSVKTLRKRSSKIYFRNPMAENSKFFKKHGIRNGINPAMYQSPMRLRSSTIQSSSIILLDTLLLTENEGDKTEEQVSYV
Experiment [4] concerns the target 5-hydroxytryptamine receptor 1B (Rattus norvegicus, UniProt P28564). The class given is cell membranes, Wistar, Cerebral cortex, Membrane. The following applies: for Ki: read-out: Ki. On all read-outs here: in other assays of this panel Not Active means under 50% inhibition at 10 µM.
Experiment [5] deals with T2, Receptor-type tyrosine-protein phosphatase C (Homo sapiens, UniProt P08575).
T2 sequence (P08575 whole entry): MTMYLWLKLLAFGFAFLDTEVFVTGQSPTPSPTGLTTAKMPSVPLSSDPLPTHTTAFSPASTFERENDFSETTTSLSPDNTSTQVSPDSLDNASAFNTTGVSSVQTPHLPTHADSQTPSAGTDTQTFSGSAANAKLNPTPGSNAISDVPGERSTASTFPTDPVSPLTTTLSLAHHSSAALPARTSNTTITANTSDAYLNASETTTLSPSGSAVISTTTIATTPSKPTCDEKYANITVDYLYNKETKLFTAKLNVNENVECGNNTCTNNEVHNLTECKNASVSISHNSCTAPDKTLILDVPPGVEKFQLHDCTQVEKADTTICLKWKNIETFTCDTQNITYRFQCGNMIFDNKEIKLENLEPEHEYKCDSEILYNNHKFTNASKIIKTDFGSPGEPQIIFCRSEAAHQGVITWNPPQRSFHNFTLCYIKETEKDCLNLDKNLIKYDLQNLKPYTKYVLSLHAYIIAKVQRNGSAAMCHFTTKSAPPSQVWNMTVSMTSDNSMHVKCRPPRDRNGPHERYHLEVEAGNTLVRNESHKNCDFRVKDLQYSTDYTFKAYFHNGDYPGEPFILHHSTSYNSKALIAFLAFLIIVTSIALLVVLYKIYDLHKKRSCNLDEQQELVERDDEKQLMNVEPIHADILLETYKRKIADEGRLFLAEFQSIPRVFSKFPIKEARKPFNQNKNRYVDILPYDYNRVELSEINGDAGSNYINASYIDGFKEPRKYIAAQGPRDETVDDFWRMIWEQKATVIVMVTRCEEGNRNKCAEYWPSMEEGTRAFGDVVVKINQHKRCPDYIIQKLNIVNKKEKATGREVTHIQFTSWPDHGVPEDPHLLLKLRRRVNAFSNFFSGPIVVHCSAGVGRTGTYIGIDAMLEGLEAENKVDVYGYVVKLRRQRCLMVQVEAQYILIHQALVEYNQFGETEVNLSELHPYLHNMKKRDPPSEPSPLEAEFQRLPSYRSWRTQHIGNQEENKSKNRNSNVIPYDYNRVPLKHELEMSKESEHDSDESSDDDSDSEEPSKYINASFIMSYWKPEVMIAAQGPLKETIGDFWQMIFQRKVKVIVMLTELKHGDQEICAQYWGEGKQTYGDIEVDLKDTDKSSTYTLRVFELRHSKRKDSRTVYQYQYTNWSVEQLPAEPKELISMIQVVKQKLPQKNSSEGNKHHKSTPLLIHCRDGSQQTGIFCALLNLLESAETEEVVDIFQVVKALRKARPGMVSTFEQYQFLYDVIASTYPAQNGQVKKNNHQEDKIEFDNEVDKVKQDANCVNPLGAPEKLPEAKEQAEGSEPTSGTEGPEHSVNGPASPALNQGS
On the set-up: species or system Escherichia coli.

The target of experiment [6] is T3, Glucocorticoid receptor (Homo sapiens, UniProt P04150). Further: in other assays of this panel Not Active means under 50% inhibition at 10 µM.
T3 sequence (P04150 whole entry): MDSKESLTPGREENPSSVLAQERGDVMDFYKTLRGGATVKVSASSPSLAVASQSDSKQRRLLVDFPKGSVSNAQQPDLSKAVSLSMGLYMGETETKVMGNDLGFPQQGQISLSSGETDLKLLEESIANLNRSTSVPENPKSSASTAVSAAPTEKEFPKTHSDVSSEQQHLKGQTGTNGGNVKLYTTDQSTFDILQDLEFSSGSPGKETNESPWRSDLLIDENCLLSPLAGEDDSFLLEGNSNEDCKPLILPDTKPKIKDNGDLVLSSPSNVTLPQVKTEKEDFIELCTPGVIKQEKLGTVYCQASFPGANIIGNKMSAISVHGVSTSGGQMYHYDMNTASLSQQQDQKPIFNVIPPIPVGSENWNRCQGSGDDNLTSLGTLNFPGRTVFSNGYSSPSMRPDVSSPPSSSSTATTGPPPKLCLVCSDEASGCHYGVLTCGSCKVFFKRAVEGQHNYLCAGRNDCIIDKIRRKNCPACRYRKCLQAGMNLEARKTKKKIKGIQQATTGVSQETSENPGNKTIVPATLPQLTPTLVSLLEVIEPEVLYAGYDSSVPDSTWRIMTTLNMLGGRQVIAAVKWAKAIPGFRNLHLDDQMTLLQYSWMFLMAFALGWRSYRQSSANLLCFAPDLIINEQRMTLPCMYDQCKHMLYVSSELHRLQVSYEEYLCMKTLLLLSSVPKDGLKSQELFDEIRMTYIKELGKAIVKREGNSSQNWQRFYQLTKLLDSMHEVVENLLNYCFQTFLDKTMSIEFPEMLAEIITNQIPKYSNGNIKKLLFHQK
The following applies: hela s3.

Experiment [7] deals with Mitogen-activated protein kinase 14 (Homo sapiens, UniProt Q16539). On the set-up: species or system Escherichia coli.
Mitogen-activated protein kinase 14, sequence (Q16539 whole entry): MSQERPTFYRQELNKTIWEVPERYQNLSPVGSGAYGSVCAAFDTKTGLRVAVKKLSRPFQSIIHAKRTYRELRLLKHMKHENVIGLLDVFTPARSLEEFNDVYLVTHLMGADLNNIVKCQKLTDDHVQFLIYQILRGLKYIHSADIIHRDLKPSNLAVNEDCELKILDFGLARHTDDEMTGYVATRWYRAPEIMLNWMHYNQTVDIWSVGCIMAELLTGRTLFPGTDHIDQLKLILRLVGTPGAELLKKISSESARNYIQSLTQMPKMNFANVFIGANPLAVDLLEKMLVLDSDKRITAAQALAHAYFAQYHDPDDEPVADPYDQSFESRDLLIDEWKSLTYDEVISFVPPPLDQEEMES

5-hydroxytryptamine receptor 1B, sequence (P28564 whole entry): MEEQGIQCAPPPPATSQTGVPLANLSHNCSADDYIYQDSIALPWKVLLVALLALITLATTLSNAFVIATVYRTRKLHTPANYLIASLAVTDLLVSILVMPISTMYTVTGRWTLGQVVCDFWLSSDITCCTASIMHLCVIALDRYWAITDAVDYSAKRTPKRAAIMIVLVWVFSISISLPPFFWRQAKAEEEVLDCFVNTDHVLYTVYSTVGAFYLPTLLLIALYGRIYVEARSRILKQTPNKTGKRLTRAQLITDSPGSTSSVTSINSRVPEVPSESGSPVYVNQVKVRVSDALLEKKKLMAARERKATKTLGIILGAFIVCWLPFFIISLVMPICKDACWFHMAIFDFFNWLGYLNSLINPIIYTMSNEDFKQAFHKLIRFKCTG

As for `CC(C)(C)NC(=O)[C@@H]1C[C@@H]2CCCC[C@@H]2CN1C[C@@H](O)[C@H](Cc1ccccc1)NC(=O)[C@H](CC(N)=O)NC(=O)c1ccc2ccccc2n1`, the half-maximal inhibitory concentration (IC50) entry is “Not Active” in experiment [1]; 6210 nM in experiment [2] (read-out: IC50); “Not Active” in experiment [3] (cho-k1); “Not Active” in experiment [4]; “Not Active” in experiment [5]; “Not Active” in experiment [6]. Further, the 50% inhibitory concentration (IC50) entry in experiment [7] is “Not Active”. The inhibition constant Ki result is “Not Active” in experiment [1] and 2070 nM in experiment [2].
Regarding `N[C@@H](Cc1ccc(N(CCCl)CCCl)cc1)C(=O)O`, the IC50 result in experiment [1], in experiment [2] (cho), in experiment [3] (cho-k1), in experiment [4], in experiment [5] and in experiment [6] was “Not Active” throughout. For the same compound, the half-maximal inhibitory concentration (IC50) result in experiment [7] was “Not Active”. For the same compound, the inhibition constant (Ki) result in experiment [1] is reported as “Not Active”.
Take `CCCCc1oc2ccccc2c1C(=O)c1cc(I)c(OCCN(CC)CC)c(I)c1` [AMIODARONE]: the IC50 in experiment [2] (read-out: IC50) was 19300 nM; in experiment [4] (read-out: IC50) it was 86200 nM; in experiment [5], “Not Active”; in experiment [6], “Not Active”; in experiment [7], “Not Active”. Moreover, the inhibition constant (Ki) in experiment [2] came to 6440 nM; in experiment [4], 39200 nM.
`Cc1oncc1C(=O)Nc1ccc(C(F)(F)F)cc1` [LEFLUNOMIDE]: the IC50 entry in experiment [1], in experiment [2] (cho), in experiment [3] (cho-k1), in experiment [4], in experiment [5] and in experiment [6] was “Not Active” in each case. In addition, in experiment [7], the IC50 result is “Not Active”. For the same compound, the Ki result in experiment [1] is reported as “Not Active”.
Turning to `c1ccc([C@H]2CN3CCSC3=N2)cc1` [LEVAMISOLE], the IC50 result in experiment [1], in experiment [2] (cho), in experiment [3] (cho-k1), in experiment [4], in experiment [5] and in experiment [7] was “Not Active” each time. The inhibition constant (Ki) entry in experiment [1] and in experiment [6] was “Not Active” in each case.
For `N[C@@H](Cc1ccc(O)c(O)c1)C(=O)O` [LEVODOPA], the IC50 entry in experiment [1], in experiment [2] (cho), in experiment [3] (cho-k1), in experiment [4], in experiment [5] and in experiment [6] was “Not Active” in each case. Besides, the IC50 entry in experiment [7] is on record as “Not Active”. Moreover, in experiment [1], the Ki result is “Not Active”.
As to `N[C@@H](Cc1cc(I)c(Oc2ccc(O)c(I)c2)c(I)c1)C(=O)O` [LIOTHYRONINE], the IC50 result in experiment [2] (cho), in experiment [3] (cho-k1), in experiment [4], in experiment [5], in experiment [6] and in experiment [7] was “Not Active” throughout.
Regarding `CCOC(=O)N1CCC(=C2c3ccc(Cl)cc3CCc3cccnc32)CC1` [LORATADINE], the 50% inhibitory concentration (IC50) entry in experiment [1], in experiment [2] (cho), in experiment [4], in experiment [5], in experiment [6] and in experiment [7] was “Not Active” each time. Moreover, the Ki result in experiment [1] is reported as “Not Active”.
On to `CC[C@@H](CO)NC(=O)[C@@H]1C=C2c3cccc4[nH]cc(c34)C[C@H]2N(C)C1` [METHYLERGONOVINE], for which the IC50 result is “Not Active” in experiment [1]; “Not Active” in experiment [2] (cho); 1.51 nM in experiment [3] (read-out: IC50); 15 nM in experiment [4] (read-out: IC50); “Not Active” in experiment [5]; “Not Active” in experiment [6]. Also, the IC50 result in experiment [7] is on record as “Not Active”. Moreover, the figures for the inhibition constant (Ki) entry in experiment [1], in experiment [3] and in experiment [4] were “Not Active”, 0.958 nM and 9.26 nM, respectively.
For `COc1nc(C)nc(Cl)c1NC1=NCCN1` [MOXONIDINE], the 50% inhibitory concentration (IC50) entry in experiment [1], in experiment [2] (cho), in experiment [3] (cho-k1), in experiment [4], in experiment [5] and in experiment [6] was “Not Active” each time. Besides, in experiment [7], the IC50 entry was “Not Active”. Also, the Ki entry in experiment [1] is given as “Not Active”.
As for `CN1CCN(CCCN2c3ccccc3Sc3ccc(Cl)cc32)CC1` [PROCHLORPERAZINE], the IC50 entry in experiment [2] (cho) is “Not Active”; in experiment [4] (read-out: IC50), 2650 nM; in experiment [5], “Not Active”; in experiment [6] it was “Not Active”; in experiment [7], “Not Active”. Also, the Ki in experiment [4] was found to be 1200 nM.
Turning to `Nc1nc2ccc(OC(F)(F)F)cc2s1` [RILUZOLE], the IC50 entry in experiment [1], in experiment [2] (cho), in experiment [3] (cho-k1), in experiment [4], in experiment [6] and in experiment [7] was “Not Active” throughout. In addition, the Ki result in experiment [1] and in experiment [5] was “Not Active” in each case.
For the compound `Cc1nc2n(c(=O)c1CCN1CCC(c3noc4cc(F)ccc34)CC1)CCCC2` [RISPERIDONE], the half-inhibitory concentration (IC50) entry in experiment [2] (cho), in experiment [4], in experiment [5], in experiment [6] and in experiment [7] was “Not Active” each time.
In the case of `C=CCC1(C(C)CCC)C(=O)NC(=O)NC1=O` (configuration not stated) [SECOBARBITAL], the IC50 result in experiment [1], in experiment [2] (cho), in experiment [3] (cho-k1), in experiment [4], in experiment [5] and in experiment [6] was “Not Active” in each case. The 50% inhibitory concentration (IC50) entry in experiment [7] is on record as “Not Active”. In addition, in experiment [1], the Ki result is on record as “Not Active”.
With `C[C@@H]1CN(c2c(F)c(N)c3c(=O)c(C(=O)O)cn(C4CC4)c3c2F)C[C@H](C)N1` [SPARFLOXACIN], the IC50 entry in experiment [1], in experiment [2] (cho), in experiment [3] (cho-k1), in experiment [4], in experiment [5] and in experiment [6] was “Not Active” in each case. Also, the half-inhibitory concentration (IC50) entry in experiment [7] is “Not Active”. The inhibition constant (Ki) entry in experiment [1] is recorded as “Not Active”.
For `CC/C(=C(\c1ccccc1)c1ccc(OCCN(C)C)cc1)c1ccccc1` [TAMOXIFEN], the IC50 in experiment [2] (read-out: IC50) is 3670 nM; in experiment [3] (read-out: IC50), 2080 nM; in experiment [4], “Not Active”; in experiment [5] it was “Not Active”; in experiment [6], “Not Active”; in experiment [7], “Not Active”. For the same compound, the values for the Ki in experiment [2] and in experiment [3] were 1220 nM and 1330 nM, respectively.

Usually IC50 stands for the concentration needed to halve the response being measured. Usually Ki stands for a dissociation constant, usually derived from enzyme kinetics or from competition with a known ligand.

These data come from ChEMBL document CHEMBL1909046, “DrugMatrix in vitro pharmacology data”.
